Patent US5041238A, “o,o'-Bridged oligophenylene laser dyes, dyestuff lasers and methods of lasing therewith” (Exciton Chemical Company, priority 1988, dated 1991)

Experiments:
[1] = Solubilities of o,o'-bridged oligophenylenes at 21° C. in laser solvents; type: physicochemical; conditions: comparison in laser solvents
Protocol: SOLUBILITIES OF o,o'-BRIDGED OLIGOPHENYLENES AT 21° C.

[2] = Fluorescence emission spectrum (Perkin-Elmer MPF-44A); type: physicochemical; conditions: for Fluorescence peak 1, intensity / Fluorescence peak 1, wavelength / Fluorescence peak 2, intensity / Fluorescence peak 2, wavelength / Fluorescence emission peak 1, intensity / Fluorescence emission peak 1, wavelength / Fluorescence emission peak 2, intensity / Fluorescence emission peak 2, wavelength: slits 2 nm; for Fluorescence emission peak 1, intensity / Fluorescence emission peak 1, wavelength / Fluorescence emission peak 2, intensity / Fluorescence emission peak 2, wavelength: excitation 265 nm
Source text: (§1) The fluorescence emission spectrum for the dye 9,9-dipropylfluorene as illustrated in FIG. 1 was detected on a Perkin-Elmer MPF-44A, the slits were set at 2 nm and the excitation light was at 265 nm. The Fluorescence Quantum Efficiency (FQE) was about the same as that of fluorene - 55%; and the fluorescence emission peaks at 306 nm(intensity 86) and 316 nm(intensity 67) were also similar to those of fluorene [the fluorescence emission spectrum for fluorene as illustrated in FIG. 5 was also detected on a Perkin-Elmer MPF-44A, the slits were set at 2 nm and the excitation light was at 265 nm and the fluorescence emission peaks for fluorene are at 303 nm(intensity 93) and 311 nm(intensity 73)].
This dye had two fluorescence peaks of almost equal intensity at 360 nm(intensity 33) and 378 nm(intensity 28) as illustrated in FIG. 2. […] The fluorescence emission spectrum of the dye 9,9,9',9'-tetrapropyl-2,2'-bifluorene was detected on a Perkin-Elmer MPF-44A, the slits were set at 2 nm and the excitation light was at 331 nm.
(§2) This dye had fluorescence peaks at 324 nm(intensity 90) and 338 nm(intensity 76) and a reported fluorescence quantum yield of 100% in cyclohexane as illustrated in FIG. 3. […] The fluorescence emission spectrum for the dye 3-phenyldibenzofuran as illustrated in FIG. 3 was detected on a Perkin-Elmer MPF-44A, the slits were set at 2 nm and the excitation light was at 301 nm.
The dye, 3,3'-bi(dibenzofuran), was prepared in accordance with the process disclosed in H. O. Wirth, G. Waese and W. Kern: Synthese Und Eigenschaften Von: Oxydo-p-oligophenylenen. Makromol. Chem. 86: 139(1965) which is incorporated herein in its entirety by reference, and was purified by extraction from Brockmann Activity I alumina with chloroform in an Ace-Kauffman column to give a white solid, mp 249.5°-250.5° C. (lit.mp 252.5° C.). This dye had two fluorescence peaks of almost equal intensity at 353 nm(intensity 47) and 369 nm(intensity 30) in cyclohexane as illustrated in FIG. 4.

[3] = Fluorescence quantum efficiency / quantum yield; type: physicochemical
Source text: as §1, §2

[4] = cyclohexane; cited from earlier work
[5] = Violet fluorescence in alcohols; type: physicochemical
Protocol: The dye, 9,9'-diethyl-2,2'-bicarbazole, was prepared from the above intermediate as follows. To a mixture of 1.10 g (4 mMol) of 2-bromo-9-ethylcarbazole and 0.096 g of cut magnesium ribbon in 4 ml of refluxing ether was added 50 microliters of 1,2-dibromoethane. Refluxing was continued for 18 hrs. The solution was cooled and 386 microliters (0.455 g) of cis-1,4-dichloro-2-butene was added. As the solution was returned to reflux, a precipate appeared. After three hours the mixture was filtered. The solid was recrystallized from 2-methoxyethanol with a hot filtration to give 0.124 g (12% of theory) of product, mp 239°-40° C.

c1ccc2c(c1)oc1cc(-c3ccc4c(c3)oc3ccccc34)ccc12 [3,3'-bi(dibenzofuran)]
Solubility compared with another dye (words) [1]: greater than that of 2,2'-bifluorene | Fluorescence emission spectrum compared with dye of Example 2 [2]: almost superimposable on that of the dye discussed in Example 2 | Fluorescence peak 1, intensity ([2]; cyclohexane, excitation 323 nm): 47 | Fluorescence peak 1, wavelength ([2]; cyclohexane, excitation 323 nm): 353 nm | Fluorescence peak 2, intensity ([2]; cyclohexane, excitation 323 nm): 30 | Fluorescence peak 2, wavelength ([2]; cyclohexane, excitation 323 nm): 369 nm

c1ccc(-c2ccc3c(c2)oc2ccccc23)cc1 [3-phenyldibenzofuran]
FQE in methanol compared with cyclohexane [3]: the same in methanol as in cyclohexane | Solubility compared with another dye (words) [1]: much greater than that of p-terphenyl | Solubility compared with another dye (words) ([1]; listed as 3phenyldibenzofuran): much more soluble in methanol, 50% ethanol, 95% ethanol and absolute | Fluorescence quantum yield (reported) [4]: 100% | Fluorescence peak 1, intensity ([2]; cyclohexane, excitation 301 nm): 90 | Fluorescence peak 1, wavelength ([2]; cyclohexane, excitation 301 nm): 324 nm | Fluorescence peak 2, intensity ([2]; cyclohexane, excitation 301 nm): 76 | Fluorescence peak 2, wavelength ([2]; cyclohexane, excitation 301 nm): 338 nm

CCn1c2ccccc2c2ccc(-c3ccc4c5ccccc5n(CC)c4c3)cc21 [9,9'-diethyl-2,2'-bicarbazole]
Violet fluorescence in alcohols compared with compounds of Examples 2 and 4 [5]: brighter violet fluorescence in alcohols than the compounds of Examples 2 and 4

CCCC1(CCC)c2ccccc2-c2ccc(-c3ccc4c(c3)C(CCC)(CCC)c3ccccc3-4)cc21 [9,9,9',9'-tetrapropyl-2,2'-bifluorene]
Solubility compared with another dye (words) [1]: more soluble than 2,2'-bifluorene in solvents | Fluorescence peak 1, intensity ([2]; excitation 331 nm): 33 | Fluorescence peak 1, wavelength ([2]; excitation 331 nm): 360 nm | Fluorescence peak 2, intensity ([2]; excitation 331 nm): 28 | Fluorescence peak 2, wavelength ([2]; excitation 331 nm): 378 nm

CCCC1(CCC)c2ccccc2-c2ccccc21 [9,9-dipropylfluorene]
Fluorescence emission peak 1, intensity [2]: 86 | Fluorescence emission peak 1, wavelength [2]: 306 nm | Fluorescence emission peak 2, intensity [2]: 67 | Fluorescence emission peak 2, wavelength [2]: 316 nm

c1ccc2c(c1)Cc1ccccc1-2 [fluorene, reference compound]
Fluorescence emission peak 1, intensity [2]: 93 | Fluorescence emission peak 1, wavelength [2]: 303 nm | Fluorescence emission peak 2, intensity [2]: 73 | Fluorescence emission peak 2, wavelength [2]: 311 nm
